{"source": "patent US20150209327A1", "about": "“METHODS FOR THE TREATMENT OF OBESITY USING APREMILAST” (Celgene Corporation, priority 2014, published 2015)", "key": {"[1]": {"test": "Psoriatic Arthritis (PsA) Phase 3 Data Pool: weight change", "format": "in vivo, human", "settings": "for Weight % Change Category 0%, n (%) / Weight % Change Category <−20%, n (%) / Weight % Change Category >0% to ≦5%, n (%) / Weight % Change Category >5% to ≦10%, n (%) / Weight % Change Category >10% to ≦20%, n (%) / Weight % Change Category >20%, n (%) / Weight % Change Category ≧−5% to <0%, n (%) / Weight % Change Category ≧−10% to <−5%, n (%) / Weight % Change Category ≧−20% to <−10%, n (%): Subjects as Treated; for observed weight loss of greater than 10%, subjects n (%) / percentage of subjects with weight change of -10% to <−5%: Weeks 0 to 16", "source_text": "Apremilast has shown benefit of weight loss in both Phase 2 and Phase 3 Psoriatic Arthritis (PSA) and Psoriasis (PSOR) trials."}, "[2]": {"system": "PDE3", "test": "PDE3 enzyme assay", "format": "biochemical", "settings": "at 10 μM", "procedure": "(§1) PDE1, 2, 3 and 5 enzyme assays were prepared as described by Hidaka and Asano. Biochem. Biophys. Acta., 1976, 429:485; see also Nicholsen et al., Trends Pharmaco. Sci., 1991, 12:19. The PDE6 enzyme assay was prepared according to Baehr et al., J. Biol. Chem., 1979, 254:11669 and Gillespie et al., Mol. Pharm., 1989, 36: 773. The PDE7 enzyme assay was prepared according to Bloom and Beavo. Proc. Natl. Acad. Sci. USA, 1996, 93:14188-92."}, "[3]": {"system": "PDE1", "test": "PDE1 enzyme assay", "format": "biochemical", "settings": "at 10 μM", "procedure": "as §1"}, "[4]": {"settings": "20 mg BID, Week 52, Apremilast Subjects as Treated"}, "[5]": {"settings": "20 mg BID, Week 78, Apremilast Subjects as Treated"}, "[6]": {"settings": "30 mg BID, Apremilast-exposure Period, m = 944"}, "[7]": {"settings": "30 mg BID, End of Period (APR, apremilast exposure), Subjects as Initially Treated at Week 0"}, "[8]": {"settings": "30 mg BID, End of Period (PBC, Week 24), Subjects as Initially Treated at Week 0"}, "[9]": {"settings": "30 mg BID, End of Period (apremilast exposure), Apremilast Subjects as Treated"}, "[10]": {"settings": "30 mg BID, Week 52, Apremilast Subjects as Treated"}, "[11]": {"settings": "30 mg BID, Week 78, Apremilast Subjects as Treated"}}, "note": "“And” between values parts separate entries of the source, which are not always exact repeats. Equal entries are not always repeated.", "data": [{"smiles": "CCOc1cc([C@@H](CS(C)(=O)=O)N2C(=O)c3cccc(NC(C)=O)c3C2=O)ccc1OC", "note": "[Apremilast, (+)-2-[1-(3-ethoxy-4-methoxyphenyl)-2-methylsulfonylethyl]-4-acetylaminoisoindoline-1,3-dione]", "values": [{"measurement": "Weight, kg Time Point Mean ± SD", "setting": "[1]; 20 mg BID, End of Period (apremilast exposure), Apremilast Subjects as Treated", "result": "84.65 ± 20.541", "unit": "kg"}, {"measurement": "Change From Baseline (kg) Median (Min, Max)", "setting": "[1]; [4]", "result": "−1.00 (−26.0, 12.5) kg"}, {"measurement": "Weight, kg Time Point Mean ± SD", "setting": "[1]; [4]", "result": "84.89 ± 20.190", "unit": "kg"}, {"measurement": "Change From Baseline (kg) Mean ± SD", "setting": "[1]; 20 mg BID, Week 52, Apremilast Subjects as Treated, listed as APR", "result": "-1.25 kg and -1.25 ± 4.223 kg"}, {"measurement": "Change From Baseline (kg) Median (Min, Max)", "setting": "[1]; [5]", "result": "−1.00 (−44.3, 14.0) kg"}, {"measurement": "Weight, kg Time Point Mean ± SD", "setting": "[1]; [5]", "result": "86.63 ± 19.721", "unit": "kg"}, {"measurement": "Change From Baseline (kg) Mean ± SD", "setting": "[1]; 20 mg BID, Week 78, Apremilast Subjects as Treated, listed as APR", "result": "-1.70 kg and -1.70 ± 6.192 kg"}, {"measurement": "Weight % Change Category 0%, n (%)", "setting": "[1]; 20 mg BID, Weeks 0-16, m = 868", "result": "122 (14.1) n (%)"}, {"measurement": "Weight % Change Category <−20%, n (%)", "setting": "[1]; 20 mg BID, Weeks 0-16, m = 868", "result": "0 n (%)"}, {"measurement": "Weight % Change Category >0% to ≦5%, n (%)", "setting": "[1]; 20 mg BID, Weeks 0-16, m = 868", "result": "260 (30.0) n (%)"}, {"measurement": "Weight % Change Category >5% to ≦10%, n (%)", "setting": "[1]; 20 mg BID, Weeks 0-16, m = 868", "result": "13 (1.5) n (%)"}, {"measurement": "Weight % Change Category >10% to ≦20%, n (%)", "setting": "[1]; 20 mg BID, Weeks 0-16, m = 868", "result": "1 (0.1) n (%)"}, {"measurement": "Weight % Change Category >20%, n (%)", "setting": "[1]; 20 mg BID, Weeks 0-16, m = 868", "result": "0 n (%)"}, {"measurement": "Weight % Change Category ≧−5% to <0%, n (%)", "setting": "[1]; 20 mg BID, Weeks 0-16, m = 868", "result": "431 (49.7) n (%)"}, {"measurement": "Weight % Change Category ≧−10% to <−5%, n (%)", "setting": "[1]; 20 mg BID, Weeks 0-16, m = 868", "result": "35 (4.0) n (%)"}, {"measurement": "Weight % Change Category ≧−20% to <−10%, n (%)", "setting": "[1]; 20 mg BID, Weeks 0-16, m = 868", "result": "6 (0.7) n (%)"}, {"measurement": "observed weight loss of greater than 10%, subjects n (%)", "setting": "[1]; 20 mg BID", "result": "6 (0.7%) n (%)"}, {"measurement": "percentage of subjects with weight change of -10% to <−5%", "setting": "[1]; 20 mg BID", "result": 4.0, "unit": "%"}, {"measurement": "weight decrease reported, subjects n (%)", "setting": "[1]; 30 mg BID", "result": "15 (1.5%) n (%)"}, {"measurement": "weight loss of greater than 10%, subjects n (%)", "setting": "[1]; 30 mg BID, Apremilast-exposure Period", "result": "36 (3.8%) n (%)"}, {"measurement": "Weight % Change Category 0%, n (%)", "setting": "[1]; [6]", "result": "71 (7.5) n (%)"}, {"measurement": "Weight % Change Category <−20%, n (%)", "setting": "[1]; [6]", "result": "0 n (%)"}, {"measurement": "Weight % Change Category >0% to ≦5%, n (%)", "setting": "[1]; [6]", "result": "272 (28.8) n (%)"}, {"measurement": "Weight % Change Category >5% to ≦10%, n (%)", "setting": "[1]; [6]", "result": "46 (4.9) n (%)"}, {"measurement": "Weight % Change Category >10% to ≦20%, n (%)", "setting": "[1]; [6]", "result": "8 (0.8) n (%)"}, {"measurement": "Weight % Change Category >20%, n (%)", "setting": "[1]; [6]", "result": "4 (0.4) n (%)"}, {"measurement": "Weight % Change Category ≧−5% to <0%, n (%)", "setting": "[1]; [6]", "result": "387 (41.0) n (%)"}, {"measurement": "Weight % Change Category ≧−10% to <−5%, n (%)", "setting": "[1]; [6]", "result": "120 (12.7) n (%)"}, {"measurement": "Weight % Change Category ≧−20% to <−10%, n (%)", "setting": "[1]; [6]", "result": "36 (3.8) n (%)"}, {"measurement": "Change From Baseline (kg) Median (Min, Max)", "setting": "[1]; [7]", "result": "−1.00 (−23.0, 17.1) kg"}, {"measurement": "Weight, kg End of Period Mean ± SD", "setting": "[1]; [7]", "result": "83.61 ± 19.766", "unit": "kg"}, {"measurement": "Change From Baseline (kg) Mean ± SD", "setting": "[1]; 30 mg BID, End of Period (APR, apremilast exposure), Subjects as Initially Treated at Week 0, listed as APR", "result": "-1.26 kg and -1.26 ± 4.120 kg"}, {"measurement": "Change From Baseline (kg) Median (Min, Max)", "setting": "[1]; [8]", "result": "−0.60 (−13.7, 11.4) kg"}, {"measurement": "Weight, kg End of Period Mean ± SD", "setting": "[1]; [8]", "result": "83.90 ± 19.670", "unit": "kg"}, {"measurement": "Change From Baseline (kg) Mean ± SD", "setting": "[1]; 30 mg BID, End of Period (PBC, Week 24), Subjects as Initially Treated at Week 0, listed as APR", "result": "-0.97 kg and -0.97 ± 3.016 kg"}, {"measurement": "Change From Baseline (kg) Mean ± SD", "setting": "[1]; [9]", "result": "-0.96 ± 5.534", "unit": "kg"}, {"measurement": "Weight, kg Time Point Mean ± SD", "setting": "[1]; [9]", "result": "84.09 ± 20.309", "unit": "kg"}, {"measurement": "Change From Baseline (kg) Median (Min, Max)", "setting": "[1]; [10]", "result": "−1.30 (−23.0, 11.8) kg"}, {"measurement": "Weight, kg Time Point Mean ± SD", "setting": "[1]; [10]", "result": "84.16 ± 19.253", "unit": "kg"}, {"measurement": "Change From Baseline (kg) Mean ± SD", "setting": "[1]; 30 mg BID, Week 52, Apremilast Subjects as Treated, listed as APR", "result": "-1.68 kg and -1.68 ± 4.049 kg"}, {"measurement": "Change From Baseline (kg) Median (Min, Max)", "setting": "[1]; [11]", "result": "−2.00 (−16.0, 17.1) kg"}, {"measurement": "Weight, kg Time Point Mean ± SD", "setting": "[1]; [11]", "result": "83.53 ± 18.202", "unit": "kg"}, {"measurement": "Change From Baseline (kg) Mean ± SD", "setting": "[1]; 30 mg BID, Week 78, Apremilast Subjects as Treated, listed as APR", "result": "-2.14 kg and -2.14 ± 4.605 kg"}, {"measurement": "Weight % Change Category 0%, n (%)", "setting": "[1]; 30 mg BID, Weeks 0-16, m = 857", "result": "111 (13.0) n (%)"}, {"measurement": "Weight % Change Category <−20%, n (%)", "setting": "[1]; 30 mg BID, Weeks 0-16, m = 857", "result": "0 n (%)"}, {"measurement": "Weight % Change Category >0% to ≦5%, n (%)", "setting": "[1]; 30 mg BID, Weeks 0-16, m = 857", "result": "266 (31.0) n (%)"}, {"measurement": "Weight % Change Category >5% to ≦10%, n (%)", "setting": "[1]; 30 mg BID, Weeks 0-16, m = 857", "result": "10 (1.2) n (%)"}, {"measurement": "Weight % Change Category >10% to ≦20%, n (%)", "setting": "[1]; 30 mg BID, Weeks 0-16, m = 857", "result": "1 (0.1) n (%)"}, {"measurement": "Weight % Change Category >20%, n (%)", "setting": "[1]; 30 mg BID, Weeks 0-16, m = 857", "result": "3 (0.4) n (%)"}, {"measurement": "Weight % Change Category ≧−5% to <0%, n (%)", "setting": "[1]; 30 mg BID, Weeks 0-16, m = 857", "result": "424 (49.5) n (%)"}, {"measurement": "Weight % Change Category ≧−10% to <−5%, n (%)", "setting": "[1]; 30 mg BID, Weeks 0-16, m = 857", "result": "35 (4.1) n (%)"}, {"measurement": "Weight % Change Category ≧−20% to <−10%, n (%)", "setting": "[1]; 30 mg BID, Weeks 0-16, m = 857", "result": "7 (0.8) n (%)"}, {"measurement": "observed weight loss of greater than 10%, subjects n (%)", "setting": "[1]; 30 mg BID", "result": "7 (0.8%) n (%)"}, {"measurement": "percentage of subjects with weight change of -10% to <−5%", "setting": "[1]; 30 mg BID", "result": 4.1, "unit": "%"}, {"measurement": "weight decrease reported, subjects n (%)", "setting": "[1]; all subjects who received apremilast", "result": "25 (1.3%) n (%)"}, {"measurement": "body weight of the majority of subjects", "setting": "[1]; regardless of duration of exposure", "result": "maintained their body weight within 0% and 5% of baseline"}, {"measurement": "% inhibition of PDE3", "setting": "[2]", "result": 20, "unit": "%"}, {"measurement": "% inhibition of PDE1", "setting": "[3]", "result": 23, "unit": "%"}]}]}
